Test results taken from patent US11959083B2, “Immunosuppression-reverting oligonucleotides inhibiting the expression of CD39” (Secarna Pharmaceuticals GmbH & Co. KG, priority 2016, dated 2024).
l = locked nucleic acid (LNA); d = 2'-deoxy (DNA)

Test system: mCD39 mRNA
Experiment: mCD39 mRNA knockdown efficacy screen in A20 cells (single dose, gymnotic delivery, QuantiGene Singleplex)
Format: cell-based, mouse
Conditions: 10 μM, three days, normalized to HPRT1
Protocol: FIG. 14-1 and 14-2 show mCD39 mRNA knockdown efficacy of mCD39 antisense oligonucleotides in the murine cancer cell line A20 (mouse B cell lymphoma). A20 cells were treated with a single dose of 10 μM of the respective antisense oligonucleotide. As negative control, cells were treated with neg1, an antisense oligonucleotide having the sequence CGTTTAGGCTATGTACTT (SEQ ID NO:99). Residual mCD39 mRNA expression relative to untreated cells is depicted. Expression values were normalized to expression of the housekeeping gene HPRT1.
In order to analyze the efficacy of mCD39 antisense oligonucleotides with regard to the knockdown of mCD39 mRNA expression in a cancer cell line, A20 (mouse B cell lymphoma, ATCC) cells were treated with a single dose (concentration: 10 μM without addition of any transfection reagent; this process is called gymnotic delivery) of the respective antisense oligonucleotide as indicated in FIG. 14. As control, cells were treated with neg1, an antisense oligonucleotide having the sequence CGTTTAGGCTATGTACTT (SEQ ID NO:99). mCD39 and HPRT1 mRNA expression was analyzed after three days using the QuantiGene Singleplex assay (Affymetrix) and mCD39 expression values were normalized to HPRT1 expression values.

Row | Substance | Relative mCD39 mRNA expression (compared to non-treated cells)
1 | +G*+G*+T*G*G*C*A*C*T*G*T*T*C*G*+T*+A*+G (antisense GGTGGCACTGTTCGTAG; sugars from the 5' end l3 d11 l3, all phosphorothioate, methylation of C not given here) [A04030MR] | 0.21
2 | +A*+G*+C*A*T*T*T*T*G*G*C*A*T*+C*+A*+C (antisense AGCATTTTGGCATCAC; sugars from the 5' end l3 d10 l3, all phosphorothioate, methylation of C not given here) [A04020MR] | 0.06
3 | +G*+A*+C*C*T*T*T*C*A*C*T*T*G*G*C*A*+T (antisense GACCTTTCACTTGGCAT; sugars from the 5' end l3 d13 l1, all phosphorothioate, methylation of C not given here) [A04023MR] | 0.03
4 | +C*+A*+C*T*G*T*T*C*G*T*A*G*T*+C*+T*+C (antisense CACTGTTCGTAGTCTC; sugars from the 5' end l3 d10 l3, all phosphorothioate, methylation of C not given here) [A04014MR] | 0.20
5 | +G*+C*+C*C*A*G*C*A*G*A*T*A*G*+T*+T*+A (antisense GCCCAGCAGATAGTTA; sugars from the 5' end l3 d10 l3, all phosphorothioate, methylation of C not given here) [A04012MR] | 0.78
6 | +G*+G*+T*A*C*T*T*C*T*C*C*T*T*+T*+A*+C (antisense GGTACTTCTCCTTTAC; sugars from the 5' end l3 d10 l3, all phosphorothioate, methylation of C not given here) [A04016MR] | 0.17
7 | +C*+G*+T*T*G*C*T*G*T*C*T*T*T*G*+A*+T*+C (antisense CGTTGCTGTCTTTGATC; sugars from the 5' end l3 d11 l3, all phosphorothioate, methylation of C not given here) [A04031MR] | 0.14
8 | +A*+T*+C*C*A*A*A*G*C*G*C*C*A*A*+A*+G*+G (antisense ATCCAAAGCGCCAAAGG; sugars from the 5' end l3 d11 l3, all phosphorothioate, methylation of C not given here) [A04026MR] | 0.04
9 | +C*+C*+T*A*G*T*T*G*T*G*T*A*+T*+A*+C (antisense CCTAGTTGTGTATAC; sugars from the 5' end l3 d9 l3, all phosphorothioate, methylation of C not given here) [A04008MR] | 0.58
10 | +G*+T*+A*C*A*G*G*T*T*G*G*T*G*+T*+G*+A (antisense GTACAGGTTGGTGTGA; sugars from the 5' end l3 d10 l3, all phosphorothioate, methylation of C not given here) [A04009MR] | 0.89
11 | +G*+T*+T*A*T*A*G*C*C*T*T*G*+C*+A*+G (antisense GTTATAGCCTTGCAG; sugars from the 5' end l3 d9 l3, all phosphorothioate, methylation of C not given here) [A04006MR] | 0.06
12 | +A*+G*+T*T*A*T*A*G*C*C*T*T*G*+C*+A*+G (antisense AGTTATAGCCTTGCAG; sugars from the 5' end l3 d10 l3, all phosphorothioate, methylation of C not given here) [A04017MR] | 0.07
13 | +G*+C*+T*A*T*A*C*T*G*C*C*T*C*+T*+T*+T (antisense GCTATACTGCCTCTTT; sugars from the 5' end l3 d10 l3, all phosphorothioate, methylation of C not given here) [A04019MR] | 0.05
14 | +G*+C*+T*A*T*A*C*T*G*C*C*T*C*T*+T*+T*+C (antisense GCTATACTGCCTCTTTC; sugars from the 5' end l3 d11 l3, all phosphorothioate, methylation of C not given here) [A04032MR] | 0.02
15 | +G*+T*+T*C*G*T*A*G*T*C*T*C*+C*+A*+G (antisense GTTCGTAGTCTCCAG; sugars from the 5' end l3 d9 l3, all phosphorothioate, methylation of C not given here) [A04003MR] | 0.07
16 | +T*+A*+C*A*T*T*T*C*T*T*A*C*T*C*+G*+T*+T (antisense TACATTTCTTACTCGTT; sugars from the 5' end l3 d11 l3, all phosphorothioate, methylation of C not given here) [A04033MR] | 0.12
17 | +C*+T*+G*T*T*C*G*T*A*G*T*C*+T*+C*+C (antisense CTGTTCGTAGTCTCC; sugars from the 5' end l3 d9 l3, all phosphorothioate, methylation of C not given here) [A04004MR] | 0.17
18 | +A*+G*+T*A*A*T*C*C*A*C*C*C*+A*+T*+A (antisense AGTAATCCACCCATA; sugars from the 5' end l3 d9 l3, all phosphorothioate, methylation of C not given here) [A04001MR] | 0.02
19 | +A*+G*+A*T*C*C*A*A*A*G*C*G*C*+C*+A*+A (antisense AGATCCAAAGCGCCAA; sugars from the 5' end l3 d10 l3, all phosphorothioate, methylation of C not given here) [A04013MR] | 0.06
